The values that follow come from patent US20100137396A1, “TREATMENT OF ESOPHAGEAL HIGH GRADE DYSPLASIA USING PHOTODYNAMIC THERAPY” (Health Research, Inc, priority 2007, published 2010).

Series [1] is described as follows: Normal tissue damage after photodynamic therapy (strictures; erythema, edema and necrosis). The class given is in vivo, human. As to conditions: after first PDT treatment. As for the experimental part: Nevertheless, PHOTOFRIN™ at an optimized dose level of 2 mg/kg body weight and activation at its preferential light absorption wavelength of 630 nm, and optimized light exposure results in a first treatment complete cure rate of about 32 percent and a two treatment complete cure rate of about 58 percent and a three treatment complete cure rate of about 77 percent. Unfortunately, the treatment also results in significant damage to surrounding normal tissue. Normal tissue damage for PHOTOFRIN™, as measured by percent of strictures at only a single treatment is about 12% and using other reported data concerning PHOTOFRIN™ treatment, is greater than 20 percent based upon toxicity as determined by the presence of erythema, edema and necrosis.
(§1) Using the above parameters, a phase I/II trial using HPPH and a phase III trial using PHOTOFRIN™, the latter approved by the United States Food and Drug Administration, the following results for response of high grade dysplasia were obtained, with CR being defined as complete ablation of high grade dysplasia.

For series [2], the system named is esophageal high grade dysplasia. The series can be described thus: Photodynamic therapy trials, response of high grade dysplasia (phase I/II HPPH, phase III PHOTOFRIN). The class given is in vivo, human. As to conditions: for Response After First Treatment, CR (complete ablation of high grade dysplasia): after first PDT treatment, patients with high grade dysplasia; for Response After Second Treatment, expected cure rate / Response After Third Treatment, expected cure rate: calculated from first-treatment rate applied to remaining uncured. As for the experimental part:
The method of the invention includes the steps of: • injecting HPPH in a physiologically compatible medium into a patient having high grade esophageal dysplasia to provide a dose level of 3 through 5 mg/m^2 of body surface area, preferably 3 through 4 mg/m^2 of body surface area. • waiting for a time period of 24 through 60 hours to permit preferential absorption of the HPPH into the high grade dysplasia tissue, and • exposing the esophageal high grade dysplasia tissue to light at a wavelength of about 670±5 nm at an energy of from about 75 to about 200 Joules/cm, preferably 75 to about 150 Joules/cm.
Injection of the HHPH is preferably accomplished intravenously usually over a time period of 0.75 to 3 hours in a physiologically compatible medium. The time period is functionally dependent upon rate of infusion and dose level desired The concentration is preferably 0.5-through 1.5 mg/ml in medium and the medium is preferably 0.1% polysorbate 80, 2% ethyl alcohol and 5% glucose in normal saline.
Exposure is accomplished using a fiber optic carrying laser light emitted by a laser. The laser may be any suitable laser emitting light at the wavelength and energy desired, e.g. a dye or diode laser. Exposure may be adjusted by length of time of exposure and/or adjustment of light intensity.
as §1

For series [3] the following is noted: cited from earlier work.
For series [4], the system named is esophageal high grade dysplasia. As to conditions: 2 mg/kg body weight, 630 nm, optimized light exposure; cited from earlier work.
For series [5] the following is noted: treatment concentration of 2 mg/kg; cited from earlier work.

In the case of “3-(1-hexyloxy) ethyl-derivative of pyropheophorbide-a [HPPH]”, the “First Treatment Normal Tissue Damage, strictures” value in series [1] was determined as 3% strictures. The “effectiveness against high grade dysplasia and side effects compared with PHOTOFRIN” value in series [2] (3 to 5 mg/m^2 of body surface area, light at 670±5 nm) is listed as “more effective against high grade dysplasia with fewer side effects than PHOTOFRIN™”. For the same substance, in series [2], the “Response After First Treatment, CR (complete ablation of high grade dysplasia)” value is given as 49% CR; the “Response After Second Treatment, expected cure rate” value was 74% expected cure rate; the “Response After Third Treatment, expected cure rate” value is 87% expected cure rate (based.
As to porfimer sodium [PHOTOFRIN ™], the “First Treatment Normal Tissue Damage, strictures” value in series [1] amounted to 12% strictures. The “Normal tissue damage as measured by percent of strictures” value in series [3] (at only a single treatment) is given as “about 12%”. For the same substance, the “Normal tissue damage based upon toxicity as determined by the presence of erythema, edema and necrosis” value in series [3] (other reported data concerning PHOTOFRIN treatment) is “greater than 20%”. Further, in series [4], the “first treatment complete cure rate” value was “about 32%”, the “three treatment complete cure rate” value is reported as “about 77%” and the “two treatment complete cure rate” value is reported as “about 58%”. Further, in series [2], the “Response After First Treatment, CR (complete ablation of high grade dysplasia)” value is 32% CR; the “Response After Second Treatment, expected cure rate” value is given as 54% expected cure rate (based upon; the “Response After Third Treatment, expected cure rate” value is reported as 71% expected cure rate (based upon. In series [2] (after second PDT treatment), the “Response After Second Treatment, cure rate (observed)” value is 58% cure rate (observed). Besides, in series [2] (after third PDT treatment), the “Response After Third Treatment, cure rate (observed)” value was 77% cure rate (observed). Moreover, the phototoxicity result in series [5] was “can cause serious phototoxicity”.
